Here are results for three compounds from ChEMBL document CHEMBL2074558, “rOCT2 is a basolateral potential-driven carrier, not an organic cation/proton exchanger” (Am J Physiol, 1999).

SMILES strings stand for the structures.

What all share (type): functional, cell-based
Data set [1] concerns the target T1, Solute carrier family 22 member 2 (Rattus norvegicus, UniProt Q9R0W2).
T1 sequence (Q9R0W2 whole entry): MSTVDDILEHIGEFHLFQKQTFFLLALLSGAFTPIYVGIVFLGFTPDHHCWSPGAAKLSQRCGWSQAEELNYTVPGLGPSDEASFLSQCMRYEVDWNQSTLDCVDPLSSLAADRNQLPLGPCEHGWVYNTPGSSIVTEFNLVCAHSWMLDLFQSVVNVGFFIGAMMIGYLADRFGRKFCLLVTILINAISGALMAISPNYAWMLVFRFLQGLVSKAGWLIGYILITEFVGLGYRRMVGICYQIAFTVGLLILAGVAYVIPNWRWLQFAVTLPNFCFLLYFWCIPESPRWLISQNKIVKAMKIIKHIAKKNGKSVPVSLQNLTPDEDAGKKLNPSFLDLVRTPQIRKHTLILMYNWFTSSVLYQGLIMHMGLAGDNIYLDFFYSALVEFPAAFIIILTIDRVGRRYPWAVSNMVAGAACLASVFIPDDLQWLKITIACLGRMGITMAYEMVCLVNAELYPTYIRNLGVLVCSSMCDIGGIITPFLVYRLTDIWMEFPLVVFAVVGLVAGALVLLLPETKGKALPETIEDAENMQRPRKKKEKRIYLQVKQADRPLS
Description: TP_TRANSPORTER: inhibition of TEA uptake (apical to cell)(TEA: 100 uM, NMN: 5000 uM) in OCT2-expressing MDCK cells. Conditions: dog.

Data set [2] has as its target T1, Solute carrier family 22 member 2. Description: TP_TRANSPORTER: inhibition of TEA uptake (apical to cell)(TEA: 100 uM, Quinine: 200 uM) in OCT2-expressing MDCK cells. Conditions: dog.
For data set [3] the target is unchanged. The data set is described as follows: TP_TRANSPORTER: TEA uptake (TEA: 200 uM, Quinine: 200 uM) in Xenopus laevis oocytes. Conditions: oocyte.
Data set [4] has the same target. The data set is described as follows: TP_TRANSPORTER: inhibition of TEA uptake (apical to cell)(TEA: 100 uM, Quinacrine: 200 uM) in OCT2-expressing MDCK cells. The note with it: dog.
Data set [5] has the same target. Description: TP_TRANSPORTER: TEA uptake (TEA: 200 uM, Quinacrine: 200 uM) in Xenopus laevis oocytes. Conditions: oocyte.

In the case of `CNC(=O)c1cccnc1` [NICOTINYL METHYLAMIDE], the Activity entry in data set [1] is “inhibitor [+]”.

Regarding `C=C[C@H]1C[N@@]2CC[C@H]1C[C@H]2[C@H](O)c1ccnc2ccc(OC)cc12` [QUININE], the Activity entry in data set [2] and in data set [3] was “inhibitor [+]” throughout.

Take `CCN(CC)CCCC(C)Nc1c2ccc(Cl)cc2nc2ccc(OC)cc12` (stereo not given) [QUINACRINE]: the Activity entry in data set [4] and in data set [5] was “inhibitor [+]” each time.
